Measurements as given in ChEMBL document CHEMBL2429867, “Generation by mutasynthesis of potential neuroprotectant derivatives of the bipyridyl collismycin A” (2013).

Organism: Danio rerio
Assay: Neuroprotective activity in 3 days postfertilized zebrafish larvae assessed as reduction of all-trans retinoic acid-induced apoptosis at 1 uM after 24 hrs by fluorescence microscopy
Format: functional
Design: scale not given: the % may be the effect or the level left

| SMILES | Activity |
| --- | --- |
| COc1cc(-c2cccc(C)n2)nc(/C=N/O)c1SC | 40% |
| COc1cc(-c2cc(C)ccn2)nc(/C=N/O)c1SC | 70% |
| O=C(O)CCCCC1CCSS1 (stereo not drawn) [LIPOIC ACID, ALPHA] | 61% |
